# pKi: −log10 of the molar value.
# How the values were obtained:
# 5-HT1B = molecular target: T1, 5-HT1B (Homo sapiens, UniProt P28222); test: Radioligand binding assay, 5-HT1B
# T1 construct: expressed in transfected cells
# Protocol: (§1) [^3H] […] The reactions are incubated at room temperature for 3 hr. and then counted in a Trilux Microbeta™ scintillation counter to detect receptor-bound radioligand. Binding data are analyzed by computer-assisted 4 parameter fit analysis (ID Business Solutions Ltd, Guildford, Surrey, UK). […]
# (§2) Affinity for other serotonin receptor subtypes as well as for alpha 1 & 2 adrenergic receptors can readily be determined by modification of the above described radioligand receptor binding assay using membranes derived from cells stably expressing the desired receptor subtype including the 5-HT1A, 5-HT1B, and 5-HT1D subtypes, as well as the 5-HT2A, 5-HT2B, 5-HT2C, 5-HT4, 5-HT7, and 5-HT6 receptor subtypes. […]
# 5-HT1D = molecular target: T2, 5-HT1D (Homo sapiens, UniProt P28221); test: Radioligand binding assay, 5-HT1D
# T2 construct: expressed in transfected cells
# Protocol: as §1, §2
# 5-HT2C = molecular target: T3, 5-HT2C (Homo sapiens, UniProt P28335); test: Radioligand binding assay, 5-HT2C
# T3 construct: expressed in transfected cells
# T3 sequence (P28335 33-458): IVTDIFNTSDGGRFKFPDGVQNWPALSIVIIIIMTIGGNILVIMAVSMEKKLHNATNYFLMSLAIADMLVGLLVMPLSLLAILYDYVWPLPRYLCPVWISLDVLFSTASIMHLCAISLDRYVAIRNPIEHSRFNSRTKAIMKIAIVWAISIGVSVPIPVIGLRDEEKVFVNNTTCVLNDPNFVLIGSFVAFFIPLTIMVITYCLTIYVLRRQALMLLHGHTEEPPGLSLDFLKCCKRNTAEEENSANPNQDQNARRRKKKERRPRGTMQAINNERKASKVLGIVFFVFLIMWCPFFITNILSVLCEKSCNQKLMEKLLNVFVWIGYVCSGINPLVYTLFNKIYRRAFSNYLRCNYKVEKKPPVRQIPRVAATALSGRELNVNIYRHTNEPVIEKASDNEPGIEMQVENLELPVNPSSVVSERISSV
# Protocol: as §1, §2
# alpha 2 adrenergic = test: Radioligand binding assay, alpha 2 adrenergic
# Protocol: as §1, §2
# [1] = system: dural plasma protein extravasation; test: Animal model of dural plasma protein extravasation (PPE); type: in vivo; settings: rat
# Source text: The dural plasma protein extravasation model is an established model for migraine. The ability of a test compound to reduce extravasation of plasma proteins into the dura under assay conditions is considered indicative of the compound's ability to reduce or prevent the dural inflammation thought to be symptomatic of migraine. (see Johnson, K. W., et al., Neuroreport, 8 (1997) 2237-2240.)
# To assay compounds for their ability to reduce or prevent dural plasma protein extravasation, male Harlan Sprague-Dawley rats (250-350 g) are anesthetized with sodium pentobarbital (65 mg/kg, i.p.) and placed in a stereotaxic frame (David Kopf Instruments) with the incisor bar set at −2.5 mm. Following a midline sagital scalp incision, 2 pairs of bilateral holes are drilled through the skull (3.2 mm posterially, 1.8 and 3.8 mm laterally, all coordinates referenced to bregma). […]
# The amount of FITC-BSA for each sample is quantified with a fluorescence microscope (Zeiss) equipped with a grating monochromator, a spectrophotometer, and a computer driven stage. Fluorescence measurements are taken at 25 points in a 5×5 grid in 500 μm steps on each dural sample with an excitation wavelength of approximately 490 nm and emission intensity measured at approximately 535 nm. The mean and standard deviation of the 25 measurements are determined. […]
# T2 sequence (P28221 whole entry, species assumed): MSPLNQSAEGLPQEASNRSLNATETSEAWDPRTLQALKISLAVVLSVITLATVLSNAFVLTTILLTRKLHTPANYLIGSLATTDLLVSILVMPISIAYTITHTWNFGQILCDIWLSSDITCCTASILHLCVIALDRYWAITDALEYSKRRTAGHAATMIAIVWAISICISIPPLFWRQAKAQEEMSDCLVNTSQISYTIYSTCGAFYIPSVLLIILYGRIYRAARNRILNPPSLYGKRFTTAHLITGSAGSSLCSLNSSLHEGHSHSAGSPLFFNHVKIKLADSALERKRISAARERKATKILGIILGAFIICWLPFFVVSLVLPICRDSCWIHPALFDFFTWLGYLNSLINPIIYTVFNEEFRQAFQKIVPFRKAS
# T1 sequence (P28222 whole entry, species assumed): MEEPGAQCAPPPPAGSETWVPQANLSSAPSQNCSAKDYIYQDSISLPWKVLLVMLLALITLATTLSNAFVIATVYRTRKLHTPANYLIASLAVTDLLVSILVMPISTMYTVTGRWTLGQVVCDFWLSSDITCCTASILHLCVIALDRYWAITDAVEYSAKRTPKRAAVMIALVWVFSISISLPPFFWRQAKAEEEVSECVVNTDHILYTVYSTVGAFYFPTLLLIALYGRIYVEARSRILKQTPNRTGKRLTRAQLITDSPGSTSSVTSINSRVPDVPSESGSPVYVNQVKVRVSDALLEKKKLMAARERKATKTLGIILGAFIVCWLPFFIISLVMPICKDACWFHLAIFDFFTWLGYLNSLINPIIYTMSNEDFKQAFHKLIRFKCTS
smiles,measurement,setting,value
"CCn1ncc(CN2CCN(c3cccnc3N3CCC(O)CC3)CC2)c1C.Cl [Example 1, 3′-[4-(1-Ethyl-5-methyl-1H-pyrazol-4-ylmethyl)-piperazin-1-yl]-3,4,5,6-tetrahydro-2H-[1,2]bipyridinyl-4-ol hydrochloride]",pKi,5-HT1B,< 5.45
same,pKi,5-HT1D,5.74
same,pKi,5-HT2C,< 5.08
same,pKi,alpha 2 adrenergic,< 5.57
same,"ratio of extravasation in the dura, stimulated side over unstimulated side","[1]; at 0.1 mg/Kg, saline control approximately 2.0, full prevention approximately 1.0",about 1.15
same,ID100,"[1]; electrical stimulation of trigeminal ganglion, route not stated for the result",0.1 mg/kg

# — patent publication US7910588B2, “5-HT7 receptor antagonists” (Eli Lilly and Company, priority 2007, dated 2011)
